Laboratory results taken from patent publication US10117940B2, “DPI formulation containing sulfoalkyl ether cyclodextrin” (CyDex Pharmaceuticals, Inc., priority 2004, dated 2018).

What was measured:
rats = conditions: inhaled aerosol composition, SBE-CD present alone; cited from earlier work
healthy volunteers = conditions: nasal spray in aqueous sulfobutylether-beta-cyclodextrin buffer solution; cited from earlier work
[1] = Electrostatic charge measurement with Faraday cage apparatus; type: physicochemical; conditions: for Electrostatic charge of active agent, Approx. Magnitude: exemplary active agent of the charge range
Procedure: Determination of the electrostatic charge of the SAE-CD-containing carrier and the active agent-containing composition.
Electrostatic charge measurements were performed using a Faraday Cage apparatus that determines the potential difference changes as a function of time during powder flow onto a conducting surface. Samples were weighed and transferred from original containers to wax coated weighing papers. These were mounted to a vibrating spatula (set at maximum vibration level). The angle of the spatula was set at a constant angle (30 degrees). Powder was dispensed to the Faraday cage that was connected to a electrometer. Data collection was performed using Windaq interface and a PC computer sampling at 240 Hz. The area under the electrostatic dissipation curve was determined (Voltage×time) and charge (nC/g) was calculated from the known resistance of the setup.

Molecule | Toxicity (rats) | Side effects (healthy volunteers) | Polarity and magnitude of electrostatic charge (in words) [1] | Electrostatic charge of active agent, Approx. Magnitude [1] [nC/g] | Electrostatic charge ([1]; micronized for inhalation) [nC/g]
sulfobutyl ether derivative of beta cyclodextrin [SBE-CD] | non-toxic |  |  |  | 
Cc1ncc2n1-c1ccc(Cl)cc1C(c1ccccc1F)=NC2 [midazolam] |  | No serious side effects |  |  | 
O=C(O)c1cc(=O)c2c(OCC(O)COc3cccc4oc(C(=O)O)cc(=O)c34)cccc2o1 [Na Cromolyn, sodium cromolyn] |  |  | electroneutral | −2 to −0.5 | −1 to −1.7
CC(C)(C)NCC(O)c1ccc(O)c(CO)c1 (stereo not drawn) [Albuterol, alpha^1-(((1,1-dimethylethyl)amino)methyl)-4-hydroxy-1,3-benzenedimethanol] |  |  | high positive charge | >4 | 
